# Test results from patent US20090253721A1, “Combined treatment with radiation and an epidermal growth factor receptor kinase inhibitor” (priority 2004, published 2009).
# Columns and labels:
# [1] = tested on: H226 xenografts; assay: Tumor growth in athymic nude mice, H226 xenografts
# Description: (§3) Erlotinib was administered by oral gavage once daily for 3 weeks. Radiation treatment was delivered twice a week for 3 weeks using custom mouse jigs designed to expose only the tumor bed to radiation.
# (§4) Combination studies determining apoptosis induction were evaluated using Student's t test with the resultant P value representing a two-sided test of statistical significance.
# [2] = tested on: UM-SCC1 cells; assay: PARP cleavage by western blot, UM-SCC1; assay type: cell-based, human
# Description: (§1) Following treatment, cells were lysed with RIPA buffer and sonicated in complete proteinase inhibitor cocktail (Roche) and sodium orthovanadate. Fifteen μg of protein extracts were mixed with SDS sample buffer and electrophoresed onto a 10% SDS-polyacrylamide gel under reducing conditions. The separated proteins were transferred onto nitrocellulose membranes (Amersham Pharmacia Biotech, Piscataway, N.J.). The membrane was incubated for 1 hour in blocking buffer (Tris-buffered saline with 0.1% Tween (TBS-T) and 5% nonfat dry milk). The membranes were then incubated with specific primary antibodies. After washing three times with TBS-T buffer, the membrane was incubated with horseradish peroxidase-linked secondary antibody (Amersham Pharmacia Biotech, Piscataway, N.J.) at 1:5000 dilution for 1 hour at room temperature. The signals were visualized with the ECL+ detection system and autoradiography.
# [3] = tested on: UM-SCC6 cells; assay: PARP cleavage by western blot, UM-SCC6; assay type: cell-based, human; conditions: erlotinib/radiation combination, data not shown
# [4] = tested on: UM-SCC6 xenografts; assay: Tumor growth in athymic nude mice, UM-SCC6 xenografts
# Description: as §3, §4
# [5] = tested on: Rad51; assay: Radiation-induced Rad51 expression, immunoblot; assay type: cell-based, human; conditions: pretreated with 1 μM erlotinib for 24 hrs; H226 and UM-SCC6; 6 Gy
# Description: as §1
# [6] = tested on: H226 cells; assay: Apoptosis by caspase activity, H226; assay type: cell-based, human; conditions: erlotinib 1 μM combined with radiation 6 Gy
# Description: (§2) Cells were seeded in 100-mm dishes at a density of 6×10^5 cells per plate and upon treatment, were harvested by trypsinization, centrifuged, and the cell pellet re-suspended to a final concentration of 2×10^6 cells/ml. Caspase activity was analyzed by fluorescence spectroscopy according to the manufacturer's protocol (Chemicon International). Briefly, the 300 μL of cells were incubated with 1× Fluorescein labeled pan-caspase inhibitor FAM-VAD-FMK (Ekert, P. G., et al. (1999) Cell Death Differ. 6(11):1081-6) at 37° C. for 1 hr in a humidified atmosphere of 5% CO2. Cells were then washed twice with wash buffer, finally resuspended in 320 μL PBS. A 100 μL aliquot of the cell suspension was transferred to a black 96-well plate in triplicate. Fluorescence was analyzed on a SpectraMax fluorescence plate reader at 550 nm excitation and 600 nm emission wavelengths.
# [7] = tested on: UM-SCC6 cells; assay: Apoptosis by caspase activity, UM-SCC6; assay type: cell-based, human; conditions: erlotinib 1 μM combined with radiation 6 Gy, p<0.05
# Description: as §2
# [8] = tested on: HNSCC and NSCLC cell lines; assay: Apoptosis by fluorescein labeled caspase inhibitor (caspase activity), cell lines pooled; assay type: cell-based, human; conditions: erlotinib alone 1 μM x 48 hrs
# Description: as §2
# [9] = tested on: UM-SCC1 cells; assay: Radiation clonogenic survival, UM-SCC1; assay type: cell-based, human; conditions: erlotinib 0.1 μM for 3 days before irradiation, 3, 6, and 9 Gy (p<0.01)
# Description: (§5) Survival following radiation exposure was defined as the ability of the cells to maintain their clonogenic capacity and to form colonies. Briefly, after exposure to radiation, cells were trypsinized, counted and seeded for colony formation in 35-mm dishes at 50-5000 cells/dish. After incubation intervals of 14-21 days, colonies were stained with crystal violet and manually counted. Colonies consisting of 50 cells or more were scored, and 5 replicate dishes containing 10-150 colonies/dish were counted for each treatment. Experiments were performed in duplicate.
# [10] = tested on: UM-SCC1 cells; assay: Apoptosis by caspase activity, UM-SCC1; assay type: cell-based, human; conditions: erlotinib 1 μM combined with radiation 6 Gy
# Description: as §2
# [11] = tested on: H226 cells; assay: Radiation clonogenic survival, H226; assay type: cell-based, human; conditions: erlotinib 0.1 μM for 3 days before irradiation, 6 and 9 Gy (p<0.05)
# Description: as §5
# [12] = tested on: UM-SCC6 and H226 cell lines; assay: Cell cycle analysis by flow cytometry (propidium iodide); assay type: cell-based, human
# Description: Cells were harvested after 72 hours exposure of erlotinib, 24 hours exposure to 6 Gy radiation, or in combination. […] After removal of ethanol by centrifugation, cells were then incubated with phosphate-citric acid buffer [0.2 M Na2HPO4 (pH 7.8), and 4 mM citric acid] at room temperature for 45 min. After centrifugation, cells were then stained with a solution containing 33 μg/ml PI (propidium iodide), 0.13 mg/ml RNase A, 10 mM EDTA, and 0.5% Triton X-100 at 4° C. for 24 hours. Stained nuclei were analyzed for DNA-PI fluorescence using a Becton Dickinson FACScan flow cytometer. Resulting DNA distributions were analyzed by Modfit (Verity Software House, Inc., Topsham, Me.) for the proportion of cells in sub-G0, G1, S, and G2-M phases of the cell cycle.
# [13] = tested on: PCNA; assay: Immunohistochemical determination of PCNA in H226 xenografts; assay type: in vivo, athymic mice
# [14] = tested on: refractory NSCLC; conditions: refractory NSCLC patients receiving erlotinib; cited from earlier work
# [15] = tested on: Egr-1, CXCL1, and IL-1β expression; assay: Validation of gene expression by quantitative RT-PCR and western blot; assay type: cell-based, human; conditions: UM-SCC6; erlotinib 1.0 μM x 24 hrs pretreatment, 6 Gy
# Description: as §1
# To further validate the microarray findings, we performed quantitative real-time PCR (QPCR) using the SYBR green dye as previously described (Kleer, C. G., et al. (2003) Proc. Natl. Acad. Sci. USA 100(20):11606-11611). Briefly, 1 μg of total RNA isolated from each sample was reverse transcribed into first strand cDNA. Threshold levels were set for each experiment during the exponential phase of the PCR reaction using the SDS v 1.7 software (Applied Biosystems), and the quantity of DNA in each sample was calculated by interpolating its Ct value versus a standard curve of Ct values obtained from serially diluted cDNA from a mixture of all of the samples using Microsoft Excel. All standard curves had R2 values ≧0.99 over three orders of magnitude. The calculated quantity of the target gene for each sample was then divided by the average calculated quantity of the housekeeping genes glyceraldehyde-3 phosphate dehydrogenase (GAPD) and hydroxymethylbilane synthase (HMBS) corresponding to each sample to give a relative expression of the target gene for each sample. All oligonucleotide primers were synthesized by Integrated DNA Technologies. […]
# [16] = erlotinib alone 0.8 mg daily oral gavage, 3 weeks
# [17] = erlotinib combined with radiation (2 Gy twice per week), 55-day observation, p<0.05
smiles,measurement,setting,value
"C#Cc1cccc(Nc2ncnc3cc(OCCOC)c(OCCOC)cc23)c1 [erlotinib, [6,7-bis(2-methoxyethoxy)-4-quinazolin-4-yl]-(3-ethynylphenyl) amine]",tumor growth,[1]; [16],modest inhibition of tumor growth
same,"tumor growth inhibition, nature of combination effect",[1]; [17],synergistic
same,PARP cleavage,"[2]; erlotinib 1 μM combined with radiation 6 Gy, UM-SCC1",Further increase in PARP cleavage
same,PARP cleavage,"[2]; erlotinib alone 1 μM, 10 and 24 hours following treatment",modest PARP cleavage
same,enhancement in PARP cleavage,[3],even more pronounced
same,tumor growth,[4]; [16],modest inhibition of tumor growth
same,"tumor growth inhibition, nature of combination effect",[4]; [17],additive
same,radiation-induced increase in Rad51 expression,[5],attenuated significantly
same,"increase in apoptosis, combined treatment",[6],additive increase in apoptosis
same,"increase in apoptosis induction, combined treatment",[7],supra-additive increase in apoptosis induction
same,increase in apoptosis as determined by caspase activity,[8],10-25%
same,radiosensitization (reduction in clonogenic survival),[9],modest but consistent radiosensitization
same,"increase in apoptosis, combined treatment",[10],additive increase in apoptosis
same,radiosensitization (reduction in clonogenic survival),[11],modest but consistent radiosensitization
same,S phase fraction,[12]; erlotinib (0.1 μM) combined with radiation (6 Gy),further reduction in the S phase fraction
same,"cell cycle phase distribution, G1",[12]; erlotinib alone (0.1 μM),accumulation of cells in G1
same,number of cells in S phase,[12]; erlotinib alone (0.1 μM),reduced the number of cells in S phase
same,number of proliferating cells (PCNA staining),[13]; combined erlotinib/radiation,smallest
same,number of proliferating cells (PCNA staining),[13]; erlotinib alone,intermediate
same,survival,[14],survival extension
same,radiation-induced enhancement of CXCL1 expression,[15],inhibited
same,radiation-induced enhancement of Egr-1 expression,[15],inhibited
same,radiation-induced enhancement of IL-1β expression,[15],inhibited
